In brackets after ≈: the same amount, converted by molar mass.
Test: Solubility of Atrasentan Hydrochloride Crystalline Forms in 1,4-dioxane
Format: physicochemical
Settings: 25° C., n=3
Method: The solubility (in mg/mL) of Atrasentan Hydrochloride Crystalline Forms 1, 2 and 3 in 1,4-dioxane at 25° C.

Structure (SMILES) | solubility in 1,4-dioxane [mg/mL]
CCCCN(CCCC)C(=O)CN1C[C@H](c2ccc3c(c2)OCO3)[C@@H](C(=O)O)[C@@H]1c1ccc(OC)cc1 [Form 1, (2R,3R,4S)-(+)-2-(4-methoxyphenyl)-4-(1,3-benzodioxol-5-yl)-1-(N,N-di(n-butyl)aminocarbonylmethyl)pyrrolidine-3-carboxylic acid] | 35.60 ± 1.82 (≈ 69.7 mM)
CCCCN(CCCC)C(=O)CN1C[C@H](c2ccc3c(c2)OCO3)[C@@H](C(=O)O)[C@@H]1c1ccc(OC)cc1 [Form 3, (2R,3R,4S)-(+)-2-(4-methoxyphenyl)-4-(1,3-benzodioxol-5-yl)-1-(N,N-di(n-butyl)aminocarbonylmethyl)pyrrolidine-3-carboxylic acid] | 16.53 ± 0.22 (≈ 32.4 mM)
CCCCN(CCCC)C(=O)CN1C[C@H](c2ccc3c(c2)OCO3)[C@@H](C(=O)O)[C@@H]1c1ccc(OC)cc1 [Form 2, (2R,3R,4S)-(+)-2-(4-methoxyphenyl)-4-(1,3-benzodioxol-5-yl)-1-(N,N-di(n-butyl)aminocarbonylmethyl)pyrrolidine-3-carboxylic acid] | 16.66 ± 0.22 (≈ 32.6 mM)
